Consider three compounds from patent EP4782444A1, “CRYSTAL FORM OF PYRIMIDINE ANILINE COMPOUND, PREPARATION METHOD, AND USE” (TYK Medicines, Inc., priority 2023, dated 2025).

Structures are written as SMILES. Like-named read-outs stand apart in the source and are kept apart here.

A short description of series [1]: Solid-state stability study (HPLC and XRPD analysis). It counts as physicochemical.
The next series can be described thus: in vivo. To be noted: rat, po, 30 mg/kg.
Series [2] is described as follows: Pharmacokinetic study in rats, single oral gavage. To be noted: SD rats, 30 mpk.
Description: (§1) SD rats received a single oral gavage administration of citrate crystalline form I, mesylate crystalline form I, and free base crystalline form I, respectively. Blood samples were collected at various time points to determine drug concentrations in rat plasma post administration of tested substance and calculate PK-related parameters.
(§2) The prepared test sample solutions were analyzed by the analytical department of the present test facility using LC-MS/MS.
(§3) Animals were fasted (≥10 h) with free access to water from the day before dosing. On the test day, rats were weighed respectively, marked at the tail, and blank blood samples were collected before administration. Blood was collected via tail vein.
(§4) 0.1 mL of whole blood was collected into EDTA-Na2 anticoagulant tubes, inverted 3-4 times to mix well, centrifuged at 10,000 g, 4 °C for 5 min to separate plasma, and stored at - 80 °C until analysis. Blood was collected via tail vein.
(§5) Plasma samples were analyzed by the analytical department of the test facility using LC-MS/MS.
The conditions of series [3]: 37 °C.
In the next series the test system is EGFR exon 20ins. To be noted: advanced non-small cell lung cancer; cited from earlier work.
The subject of series [4] is exon 20 insertion mutations of EGFR and HER2. To be noted: reported clinical trial results; cited from earlier work.

Description for in vivo: as §1, §2, §3, §4, §5

For the compound `C=CC(=O)Nc1cc(Nc2ncc(C(=O)OC(C)C)c(-c3cn(C)c4ccccc34)n2)c(OC)cc1N(C)[C@@H]1[C@@H]2CN(C)C[C@@H]21` [Citrate crystalline form I], the Appearance entry in series [1] (25°C/60%RH, day 3) was “Unchanged”; in series [1] (25°C/60%RH, day 7) it was “Unchanged”; in series [1] (25°C/95±5%RH, day 3), “Unchanged”; in series [1] (25°C/95±5%RH, day 7), “Unchanged”; in series [1] (40°C/75%RH, day 3) it was “Unchanged”; in series [1] (40°C/75%RH, day 7), “Unchanged”. The Appearance result in series [1] (60 °C, day 3) was “Unchanged”; in series [1] (60 °C, day 7) it was “Unchanged”; in series [1] (80 °C, day 1), “Unchanged”; in series [1] (80 °C, day 3), “Unchanged”. For the same compound, the “Crystalline Form” value in series [1] (25°C/60%RH, day 3, XRPD) is on record as “Unchanged”; in series [1] (25°C/60%RH, day 7, XRPD) it was “Unchanged”; in series [1] (25°C/95±5%RH, day 3, XRPD) it was “Unchanged”; in series [1] (25°C/95±5%RH, day 7, XRPD), “Unchanged”; in series [1] (40°C/75%RH, day 3, XRPD), “Unchanged”; in series [1] (40°C/75%RH, day 7, XRPD), “Unchanged”. Also, the “Crystalline Form” value in series [1] (60 °C, day 3, XRPD) is recorded as “Unchanged”; in series [1] (60 °C, day 7, XRPD) it was “Unchanged”; in series [1] (80 °C, day 1, XRPD) it was “Unchanged”; in series [1] (80 °C, day 3, XRPD), “Unchanged”. For the same compound, the Purity % in series [1] (25°C/60%RH, day 3, open vial) was found to be 98.68%; in series [1] (25°C/60%RH, day 7, open vial), 98.61%; in series [1] (25°C/95±5%RH, day 3, open vial), 98.66%; in series [1] (25°C/95±5%RH, day 7, open vial), 98.67%; in series [1] (40°C/75%RH, day 3, open vial), 98.66%; in series [1] (40°C/75%RH, day 7, open vial), 98.59%. Moreover, the Purity % in series [1] (60 °C, day 3, open vial) was 98.68%; in series [1] (60 °C, day 7, open vial), 98.66%; in series [1] (80 °C, day 1, open vial), 98.71%; in series [1] (80 °C, day 3, open vial), 98.68%; in series [1] (day 0 (baseline before storage), mean of 3 parallel experiments), 98.74%. The “crystalline form and chemical purity” value in series [1] (under the five storage conditions) is given as “did not change significantly”. Moreover, in the series “in vivo”, the exposure AUC(0-t) is 1700 ng·h/mL. The Cmax in the series “in vivo” came out at 126 ng/mL. Further, the time of peak concentration (Tmax) in the series “in vivo” stood at 5 h. In the series “in vivo”, this compound had a half-life of 3.01 h. Also, the “in vivo exposure in rats compared with free base crystalline form I” value in series [2] is listed as “higher”. In addition, the “Solubility” value was greater than 5000 µg/mL in series [3] (FaSSIF, 0.5 h, 30 min); greater than 5000 µg/mL in series [3] (FaSSIF, 2 h, 120 min); 3990 µg/mL in series [3] (FaSSIF, 24 h, 1440 min); greater than 5020 µg/mL in series [3] (FeSSIF, 0.5 h, 30 min); greater than 5020 µg/mL in series [3] (FeSSIF, 2 h, 120 min); greater than 5020 µg/mL in series [3] (FeSSIF, 24 h, 1440 min). The “Solubility” value in series [3] (H2O, 0.5 h, 30 min) is 1910 µg/mL; in series [3] (H2O, 2 h, 120 min) it was 1990 µg/mL; in series [3] (H2O, 24 h, 1440 min), 2440 µg/mL; in series [3] (SGF, 0.5 h, 30 min), greater than 5040 µg/mL; in series [3] (SGF, 2 h, 120 min) it was greater than 5040 µg/mL; in series [3] (SGF, 24 h, 1440 min) it was greater than 5040 µg/mL.

Consider `C=CC(=O)Nc1cc(Nc2nccc(Nc3cc(Cl)c(F)cc3C(C)(C)O)n2)c(OC)cc1N1CC[C@@H](N(C)C)C1` [DZD9008], for which the objective response rate with EGFR exon 20ins is 40%.

For the compound `C=CC(=O)Nc1cc(Nc2ncc(C(=O)OC(C)C)c(-c3cn(C)c4ccccc34)n2)c(OC)cc1N(C)CCN(C)C` [TAK-788], the objective response rate in series [4] is 43%.

One may read the AUC(0-t) as exposure summed from dosing to a finite time, without extrapolation to infinity. Usually Cmax stands for the maximum level reached in the sampled fluid or tissue. The Tmax is the time from dosing to the highest level. The half-life is the time in which the quantity being followed falls by half. In general, Solubility refers to the concentration that dissolves in the medium under given conditions. A higher Solubility goes with a readily soluble substance.
